≈ marks a conversion by molar mass, not a printed value. Like-named read-outs stand apart in the source and are kept apart here.
Columns and labels:
[1] = cited from earlier work
[2] = physchem; details: for solubility: organic solvent or mixture
From the text: In one or more embodiments, the foamable composition includes a potent solvent, in addition to or in place of one of the hydrophobic solvents, polar solvents or emollients of the composition. A potent solvent is a solvent other than mineral oil that solubilizes a specific active agent substantially better than a hydrocarbon solvent such as mineral oil or petrolatum.
In one or more embodiments, the composition includes at least one active agent in a therapeutically effective concentration; and at least one potent solvent in a sufficient amount to substantially solubilize the at least one active agent in the composition. […] In one or more embodiments, the concentration of the at least one potent solvent is more than about 40% of the at least one solvent of the composition; or even more than about 60%.

Solubility in glycofurol [2] | Solubility in mineral oil [2] [%] | Solubility in dimethyl isosorbide [2] | SMILES | further results
more than 1% | < 0.01 | – | CCCCC(=O)O[C@]1(C(=O)CO)[C@@H](C)C[C@H]2[C@@H]3CCC4=CC(=O)C=C[C@]4(C)[C@@]3(F)[C@@H](O)C[C@@]21C [Betamethasone valerate] | solubility in water ([1]; in words): practically insoluble
more than 1% | < 0.01 | – | CCCC(=O)O[C@]1(C(=O)CO)CC[C@H]2[C@@H]3CCC4=CC(=O)CC[C@]4(C)[C@H]3[C@@H](O)C[C@@]21C [Hydrocortisone butyrate] | –
more than 1% | < 0.01 | more than 1% | CC(=O)N1CCN(c2ccc(OCC3COC(Cn4ccnc4)(c4ccc(Cl)cc4Cl)O3)cc2)CC1 (stereo not drawn) [Ketoconazole] | Solubility in propylene glycol [2]: more than 1%
– | < 0.001 | – | Cc1cnc(NC(=O)C2=C(O)c3ccccc3S(=O)(=O)N2C)s1 [Meloxicam] | solubility ([2]; Solubility in PEG 400): 3700 µg/mL (≈ 10.5 mM); solubility ([2]; Solubility in propylene glycol): 300 µg/mL (≈ 0.854 mM)
– | < 0.01 | more than 1% | Cc1ncc([N+](=O)[O-])n1CCO [Metronidazole] | –
more than 1% | < 0.01 | more than 1% | C/C(=C\C(=O)OCCCCCCCCC(=O)O)C[C@@H]1OC[C@H](C[C@@H]2O[C@H]2[C@@H](C)[C@H](C)O)[C@@H](O)[C@H]1O [Mupirocin] | Solubility in polyethylene glycol 400 (PEG 400) [2]: more than 1%; Solubility in propylene glycol [2]: more than 1%
– | < 0.001 | – | CC(=O)[C@H]1CC[C@H]2[C@@H]3CCC4=CC(=O)CC[C@]4(C)[C@H]3CC[C@]12C [Progesterone] | solubility ([2]; Solubility in PEG 400): 15300 µg/mL (≈ 48.7 mM)
– | – | – | C=C1/C(=C\C=C2/CCC[C@]3(C)[C@@H]([C@H](C)/C=C/[C@@H](O)C4CC4)CC[C@@H]23)C[C@@H](O)C[C@@H]1O [calcipotriol] | solubility in water [1]: 0.6 µg/mL (≈ 0.00145 mM)
– | – | – | CCC(=O)O[C@]1(C(=O)CCl)[C@@H](C)C[C@H]2[C@@H]3CCC4=CC(=O)C=C[C@]4(C)[C@@]3(F)[C@@H](O)C[C@@]21C [clobestol proprionate] | degree of solubility in water or petrolatum or the composition ([1]; in words): practically insoluble
– | – | – | C=CC[C@@H]1/C=C(\C)C[C@H](C)C[C@H](OC)[C@H]2O[C@@](O)(C(=O)C(=O)N3CCCC[C@H]3C(=O)O[C@H](/C(C)=C/[C@@H]3CC[C@@H](O)[C@H](OC)C3)[C@H](C)[C@@H](O)CC1=O)[C@H](C)C[C@@H]2OC [tacrolimus] | solubility in water ([1]; in words): insoluble

— patent US8795635B2, “Substantially non-aqueous foamable petrolatum based pharmaceutical and cosmetic compositions and their uses” (Foamix Ltd., priority 2006, dated 2014)
